Source: the supplement of paper PMC11451515

Assays:
Conditions in all cases: 48 h
NOMO1 [1] = assay: cell viability relative to DMSO control; higher = less cytotoxic
In short: (§1)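 Viability, reported as a per-plate percentage of DMSO wells with cell-free wells as background, came from CellTiter-Glo One luminescence. Reading took place after 48 h at 37°C. Before that, NOMO1 or SEM (500 cells/well) or P12-Ichikawa (1000 cells/well) leukemia cells, adapted for at least four passages in each medium, were seeded in 1536-well plates (5 μl) and pin-dosed with library compounds in DMSO, 47 μM to 0.79 nM over 11 threefold points.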

P12-Ichikawa [2] = assay: as above
In short: as §1

SEM cells [3] = assay: as above
In short: as §1

NOMO1 [4] = assay: AUC of viability dose-response curve (% viability x log10 dose units); higher = less sensitive
In short: (§2)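 Seeding of medium-adapted leukemia cells was at 500 or 1000 cells/well in 1536-well plates, followed by 48 h at 37°C with library compounds in DMSO at 11 threefold doses from 47 μM to 0.79 nM. CellTiter-Glo One luminescence was normalised per plate to DMSO and cell-free wells and fitted as a four-parameter log-logistic function of log10 dose. Area under the curve was integrated by trapezoidal rule, with curves exceeding full viability scaled and curves failing quality control removed.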

P12-Ichikawa [5] = assay: as above
In short: as §2

SEM cells [6] = assay: as above
In short: as §2

N#CC(=C(/N)Sc1ccccc1N)/C(C#N)=C(\N)Sc1ccccc1N
cell viability [%]
Conditions	NOMO1 [1]	P12-Ichikawa [2]	SEM cells [3]
HPLM + 10% dialyzed FBS, 0.000781 µM	118	115	95.9
HPLM + 10% dialyzed FBS, 0.00234 µM	119	121	101
HPLM + 10% dialyzed FBS, 0.00702 µM	122	120	129
HPLM + 10% dialyzed FBS, 0.0211 µM	128	128	133
HPLM + 10% dialyzed FBS, 0.0632 µM	134	131	116
HPLM + 10% dialyzed FBS, 0.19 µM	140	125	123
HPLM + 10% dialyzed FBS, 0.569 µM	130	131	111
HPLM + 10% dialyzed FBS, 1.71 µM	101	120	113
HPLM + 10% dialyzed FBS, 5.12 µM	107	126	94.1
HPLM + 10% dialyzed FBS, 15.4 µM	90.8	124	100
HPLM + 10% dialyzed FBS, 46.1 µM	71	111	83
RPMI 5 mM glucose + 10% FBS, 0.000781 µM	115	–	–
RPMI 5 mM glucose + 10% FBS, 0.00234 µM	115	–	–
RPMI 5 mM glucose + 10% FBS, 0.00702 µM	121	–	–
RPMI 5 mM glucose + 10% FBS, 0.0211 µM	120	–	–
RPMI 5 mM glucose + 10% FBS, 0.0632 µM	120	–	–
RPMI 5 mM glucose + 10% FBS, 0.19 µM	121	–	–
RPMI 5 mM glucose + 10% FBS, 0.569 µM	118	–	–
RPMI 5 mM glucose + 10% FBS, 1.71 µM	117	–	–
RPMI 5 mM glucose + 10% FBS, 5.12 µM	114	–	–
RPMI 5 mM glucose + 10% FBS, 15.4 µM	120	–	–
RPMI 5 mM glucose + 10% FBS, 46.1 µM	97.8	–	–
RPMI 5 mM glucose + 10% dialyzed FBS, 0.000781 µM	–	–	116
RPMI 5 mM glucose + 10% dialyzed FBS, 0.00234 µM	–	–	120
RPMI 5 mM glucose + 10% dialyzed FBS, 0.00702 µM	–	–	139
RPMI 5 mM glucose + 10% dialyzed FBS, 0.0211 µM	–	–	151
RPMI 5 mM glucose + 10% dialyzed FBS, 0.0632 µM	–	–	113
RPMI 5 mM glucose + 10% dialyzed FBS, 0.19 µM	–	–	118
RPMI 5 mM glucose + 10% dialyzed FBS, 0.569 µM	–	–	111
RPMI 5 mM glucose + 10% dialyzed FBS, 1.71 µM	–	–	98.2
RPMI 5 mM glucose + 10% dialyzed FBS, 5.12 µM	–	–	93.2
RPMI 5 mM glucose + 10% dialyzed FBS, 15.4 µM	–	–	89
RPMI 5 mM glucose + 10% dialyzed FBS, 46.1 µM	–	–	57.3

AUC of viability dose-response curve
Conditions	NOMO1 [4]	P12-Ichikawa [5]	SEM cells [6]
HPLM + 10% dialyzed FBS	436	474	452
RPMI 5 mM glucose + 10% FBS	473	469	444
RPMI 5 mM glucose + 10% dialyzed FBS	444	472	410

NC(=O)Nc1cc(-c2ccc(CN3CCOCC3)cc2)sc1C(N)=O
cell viability [%]
Conditions	NOMO1 [1]	P12-Ichikawa [2]	SEM cells [3]
HPLM + 10% dialyzed FBS, 0.000781 µM	122	121	103
HPLM + 10% dialyzed FBS, 0.00234 µM	112	119	113
HPLM + 10% dialyzed FBS, 0.00702 µM	121	126	106
HPLM + 10% dialyzed FBS, 0.0211 µM	132	117	108
HPLM + 10% dialyzed FBS, 0.0632 µM	113	110	103
HPLM + 10% dialyzed FBS, 0.19 µM	68.3	19.7	32.9
HPLM + 10% dialyzed FBS, 0.569 µM	71.7	8.91	33.3
HPLM + 10% dialyzed FBS, 1.71 µM	91.5	8.7	22.2
HPLM + 10% dialyzed FBS, 5.12 µM	84.6	7.42	12.9
HPLM + 10% dialyzed FBS, 15.4 µM	74.9	7.74	11.5
HPLM + 10% dialyzed FBS, 46.1 µM	48.4	17.1	8.44
RPMI 5 mM glucose + 10% FBS, 0.000781 µM	100	104	118
RPMI 5 mM glucose + 10% FBS, 0.00234 µM	113	107	120
RPMI 5 mM glucose + 10% FBS, 0.00702 µM	126	110	133
RPMI 5 mM glucose + 10% FBS, 0.0211 µM	101	111	116
RPMI 5 mM glucose + 10% FBS, 0.0632 µM	97.6	94.9	111
RPMI 5 mM glucose + 10% FBS, 0.19 µM	50	32.1	20.2
RPMI 5 mM glucose + 10% FBS, 0.569 µM	50.8	11.5	19.9
RPMI 5 mM glucose + 10% FBS, 1.71 µM	45.9	8.89	17.1
RPMI 5 mM glucose + 10% FBS, 5.12 µM	52.1	8.7	10.8
RPMI 5 mM glucose + 10% FBS, 15.4 µM	58.5	10	6.3
RPMI 5 mM glucose + 10% FBS, 46.1 µM	49.6	18.6	6.6
RPMI 5 mM glucose + 10% dialyzed FBS, 0.000781 µM	107	117	104
RPMI 5 mM glucose + 10% dialyzed FBS, 0.00234 µM	99.3	114	110
RPMI 5 mM glucose + 10% dialyzed FBS, 0.00702 µM	108	121	109
RPMI 5 mM glucose + 10% dialyzed FBS, 0.0211 µM	108	115	108
RPMI 5 mM glucose + 10% dialyzed FBS, 0.0632 µM	101	120	91.2
RPMI 5 mM glucose + 10% dialyzed FBS, 0.19 µM	55.5	26.9	22.9
RPMI 5 mM glucose + 10% dialyzed FBS, 0.569 µM	46.2	17.8	21.6
RPMI 5 mM glucose + 10% dialyzed FBS, 1.71 µM	47.8	19.4	14.5
RPMI 5 mM glucose + 10% dialyzed FBS, 5.12 µM	56	19	7.42
RPMI 5 mM glucose + 10% dialyzed FBS, 15.4 µM	58.3	21.2	7.32
RPMI 5 mM glucose + 10% dialyzed FBS, 46.1 µM	37.2	33.4	5.7

AUC of viability dose-response curve
Conditions	NOMO1 [4]	P12-Ichikawa [5]	SEM cells [6]
HPLM + 10% dialyzed FBS	369	236	262
RPMI 5 mM glucose + 10% FBS	331	246	240
RPMI 5 mM glucose + 10% dialyzed FBS	338	266	240
